Experimental data taken from patent EP3885436A1, “POLYPEPTIDES WITH PEROXIDASE ACTIVITY” (Technische Universität Wien, priority 2020, dated 2021).
Where two headings read alike, the source gives them in different places.

Tests used:
Assay type in all cases: biochemical
[1] = target: T1, horseradish peroxidase, wild-type HRP (rHRP, variant C1A, SEQ ID NO: 2), produced in E. coli (Armoracia rusticana, UniProt P00433); test: Enzyme kinetic parameters, 96-well plate assay; conditions: substrate TMB (20 - 550 µM), 1 mM H2O2, 50 mM phosphate-citrate buffer pH 5, 30 °C; Table 6
T1 construct: made in house
T1 sequence (P00433 with tags, fused parts or gaps): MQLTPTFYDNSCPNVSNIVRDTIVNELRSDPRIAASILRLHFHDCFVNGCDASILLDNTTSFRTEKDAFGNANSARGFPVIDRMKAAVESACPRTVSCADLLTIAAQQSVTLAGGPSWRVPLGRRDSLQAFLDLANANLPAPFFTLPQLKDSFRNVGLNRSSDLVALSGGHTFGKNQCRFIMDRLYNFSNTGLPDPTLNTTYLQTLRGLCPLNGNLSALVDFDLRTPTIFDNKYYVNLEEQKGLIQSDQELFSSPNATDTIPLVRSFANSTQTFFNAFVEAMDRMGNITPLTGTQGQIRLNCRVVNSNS
Method: (§1) Plant HRP Type VI-A (Cat. No.: P6782) was obtained from Sigma-Aldrich (St. Louis, MO, USA). All HRP variants produced in E. coli consisted of the sequence as set forth in SEQ ID NO: 2 with the indicated mutations unless specified otherwise.
(§2) For measurements with 3,3',5,5'-tetramethylbenzidine (TMB) as substrate, the reaction mixture in each well of the 96-well plate contained a saturating hydrogen peroxide concentration of 1 mM and varying TMB concentrations (20 - 550 µM) in 50 mM phosphate-citrate buffer pH 5 in a final volume of 200 µL. Protein sample (5 µL) was mixed with 175 µl TMB-buffer mixture and the reaction was started with 20 µl hydrogen peroxide solution (10 mM). The increase in absorption was followed at 652 nm for 60s at 30 °C in a Tecan Infinite M200 PRO instrument. The kinetic parameters were calculated using Sigma Plot software (Systat Software INC., San Jose, CA, USA) and an extinction coefficient of ε652 = 39 mM^-1 cm^-1 (see Josephy, et al. "The horseradish peroxidase-catalyzed oxidation of 3, 5, 3', 5'-tetramethylbenzidine. Free radical and charge-transfer complex intermediates." Journal of Biological Chemistry 257.7 (1982): 3669-3675).
(§3) The increase in absorption was followed at 420 nm for 120 s at 30 °C in a Tecan Infinite M200 PRO instrument. […]

[2] = target: T2, plant-derived HRP (pHRP), Plant HRP Type VI-A, horseradish peroxidase (Armoracia rusticana, UniProt P00433); test: Enzyme kinetic parameters, 96-well plate assay; conditions: substrate TMB (20 - 550 µM), 1 mM H2O2, 50 mM phosphate-citrate buffer pH 5, 30 °C; Table 6
T2 construct: The plant-derived enzyme undergoes post-translational modifications, resulting inter alia in a free N-terminus without an appended methionine; purchased Sigma-Aldrich P6782; host or cells: extracted from the plant
T2 sequence (P00433 31-338 limits assumed): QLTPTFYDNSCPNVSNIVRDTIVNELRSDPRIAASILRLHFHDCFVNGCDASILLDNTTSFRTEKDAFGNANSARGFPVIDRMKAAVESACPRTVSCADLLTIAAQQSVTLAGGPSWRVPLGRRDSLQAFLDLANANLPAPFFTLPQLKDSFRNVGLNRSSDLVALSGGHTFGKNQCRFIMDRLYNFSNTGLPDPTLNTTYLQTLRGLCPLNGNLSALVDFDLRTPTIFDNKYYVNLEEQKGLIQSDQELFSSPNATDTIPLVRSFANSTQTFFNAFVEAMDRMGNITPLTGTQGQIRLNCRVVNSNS
Method: as §1, §2, §3

[3] = target: T3, horseradish peroxidase variant HRP N13D/N57S/N175S/N255D/N268D, produced in E. coli (Armoracia rusticana, UniProt P00433, N205S/N285D/N298D/N43D/N87S)
T3 construct: made in house
T3 sequence (P00433 31-338 N43D/N87S/N205S/N285D/N298D): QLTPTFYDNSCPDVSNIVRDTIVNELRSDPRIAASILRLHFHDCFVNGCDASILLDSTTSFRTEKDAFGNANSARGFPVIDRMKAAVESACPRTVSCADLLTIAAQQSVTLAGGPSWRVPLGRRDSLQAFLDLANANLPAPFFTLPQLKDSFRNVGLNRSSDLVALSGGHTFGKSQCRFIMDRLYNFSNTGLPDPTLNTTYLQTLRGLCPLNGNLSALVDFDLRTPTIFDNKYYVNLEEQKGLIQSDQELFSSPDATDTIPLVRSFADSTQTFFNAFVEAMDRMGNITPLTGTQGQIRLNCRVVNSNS
Method: as §1, §2
(§4) The increase in absorption was followed at 420 nm for 120 s at 30 °C in a Tecan Infinite M200 PRO instrument. The kinetic parameters were calculated using Sigma Plot software (Systat Software INC., San Jose, CA, USA) and an extinction coefficient of ε420 = 36 mM^-1 cm^-1 (see Childs and Bardsley. "The steady-state kinetics of peroxidase with 2, 2'-azino-di-(3-ethyl-benzthiazoline-6-sulphonic acid) as chromogen." Biochemical Journal 145.1 (1975): 93-103).
as §4

[4] = target: T4, horseradish peroxidase variant HRP N13D/N57S/P146Q/N175S/N255D/N268D/N275K (mHRP, SEQ ID NO: 4), produced in E. coli (Armoracia rusticana, UniProt P00433, N205S/N285D/N298D/N305K/N43D/N87S/P176Q)
T4 construct: made in house
T4 sequence (P00433 31-338 N43D/N87S/P176Q/N205S/N285D/N298D/N305K): as the sequence (P00433 31-338 N43D/N87S/N205S/N285D/N298D) above, with P146Q, N275K counted along it
Method: as §1, §2, §4, §4

[5] = substrate H2O2 (0.001 - 1 mM), 10 mM ABTS, 50 mM phosphate-citrate buffer pH 5, 30 °C, Table 3

SMILES | kcat [1] [s⁻¹] | kcat [2] [s⁻¹] | kcat ([3]; substrate TMB (20 - 550 µM), 1 mM H2O2, 50 mM phosphate-citrate buffer pH 5, 30 °C, Table 2) [s⁻¹] | kcat ([4]; substrate TMB (20 - 550 µM), 1 mM H2O2, 50 mM phosphate-citrate buffer pH 5, 30 °C, Table 2 (Example 3)) [s⁻¹] | kcat ([4]; substrate TMB (20 - 550 µM), 1 mM H2O2, 50 mM phosphate-citrate buffer pH 5, 30 °C, Table 6 (Example 4)) [s⁻¹] | kcat [3, 5] [s⁻¹] | kcat [4, 5] [s⁻¹]
Cc1cc(-c2cc(C)c(N)c(C)c2)cc(C)c1N [TMB, 3,3',5,5'-tetramethylbenzidine] | 4169 ± 207 | 4343 | 3236 ± 193 | 4342 ± 292 | 4293 ± 171 |  | 
OO [H2O2, hydrogen peroxide] |  |  |  |  |  | 1152 | 1344 ± 22
